Results taken from PubChem BioAssay AID1963845 (Molecular Pharmacology Branch, DTP, NCI, 2024).

Tested on: 429239-143-T-J1-PDC complex spheroid viability
Assay: Anticancer human tumor 429239-143-T-J1-PDC patient-derived small cell lung carcinoma cell line growth inhibition [POLQ]
Conditions: for IC50: curve of first compound; for viability, T/C: stronger effect = lower value
Outline: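 Patient-derived tumour cells were co-cultured with HUVEC and mesenchymal stem cells as multicellular spheroids at 37 °C. They were treated with POLQ inhibitors (novobiocin, ART-558, RP6685) alone or combined with other agents. Top concentrations were at or near clinical Cmax (otherwise 10 microM; SN-38 at 1 microM), decreasing in half-log steps.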

[1] = second compound 0.0316 µM, first compound 0.0316 µM
[2] = second compound 0.0316 µM, first compound 0.1 µM
[3] = second compound 0.0316 µM, first compound 0.316 µM
[4] = second compound 0.0316 µM, first compound 1 µM
[5] = second compound 0.0316 µM, first compound 3.16 µM
[6] = second compound 0.0316 µM, first compound 10 µM
[7] = second compound 0.1 µM, first compound 0.0316 µM
[8] = second compound 0.1 µM, first compound 0.1 µM
[9] = second compound 0.1 µM, first compound 0.316 µM
[10] = second compound 0.1 µM, first compound 1 µM
[11] = second compound 0.1 µM, first compound 3.16 µM
[12] = second compound 0.1 µM, first compound 10 µM
[13] = second compound 0.316 µM, first compound 0.0316 µM
[14] = second compound 0.316 µM, first compound 0.1 µM
[15] = second compound 0.316 µM, first compound 0.316 µM
[16] = second compound 0.316 µM, first compound 1 µM
[17] = second compound 0.316 µM, first compound 3.16 µM
[18] = second compound 0.316 µM, first compound 10 µM
[19] = second compound 1 µM, first compound 0.0316 µM
[20] = second compound 1 µM, first compound 0.1 µM
[21] = second compound 1 µM, first compound 0.316 µM
[22] = second compound 1 µM, first compound 1 µM
[23] = second compound 1 µM, first compound 3.16 µM
[24] = second compound 1 µM, first compound 10 µM
[25] = second compound 3.16 µM, first compound 0.0316 µM
[26] = second compound 3.16 µM, first compound 0.1 µM
[27] = second compound 3.16 µM, first compound 0.316 µM
[28] = second compound 3.16 µM, first compound 1 µM
[29] = second compound 3.16 µM, first compound 3.16 µM
[30] = second compound 3.16 µM, first compound 10 µM
[31] = second compound 10 µM, first compound 0.0316 µM
[32] = second compound 10 µM, first compound 0.1 µM
[33] = second compound 10 µM, first compound 0.316 µM
[34] = second compound 10 µM, first compound 1 µM
[35] = second compound 10 µM, first compound 3.16 µM
[36] = second compound 10 µM, first compound 10 µM
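Also: luminescence signal used as surrogate measure of viable cells; spheroids exposed to compounds for seven days before readout.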
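For viability, T/C in this document: 100% = DMSO vehicle control viability as luminescence relative to vehicle.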

Structure (SMILES): CC1COCCN1c1cc(C2(O)CC3CCC(C2)O3)c2cnn(-c3ccn[nH]3)c2n1 (stereo not drawn) + Cc1cccc(N(C)C(=O)C2C(O)CCN2c2nc(C)cc(C(F)(F)F)c2C#N)c1
- IC50 (second compound 0.0316 µM): 0.0672 µM
- IC50 (second compound 0.1 µM): 0.0668 µM
- IC50 (second compound 0.316 µM): 0.0617 µM
- IC50 (second compound 1 µM): 0.071 µM
- IC50 (second compound 3.16 µM): 0.0478 µM
- IC50 (second compound 10 µM): 0.063 µM
- viability, T/C [1]: 76.8%
- viability, T/C [2]: 35.8%
- viability, T/C [3]: 17.6%
- viability, T/C [4]: 10.3%
- viability, T/C [5]: 7.41%
- viability, T/C [6]: 5.4%
- viability, T/C [7]: 69.6%
- viability, T/C [8]: 39.6%
- viability, T/C [9]: 19.3%
- viability, T/C [10]: 11.8%
- viability, T/C [11]: 7.54%
- viability, T/C [12]: 5.93%
- viability, T/C [13]: 62.1%
- viability, T/C [14]: 41.3%
- viability, T/C [15]: 16.2%
- viability, T/C [16]: 9.23%
- viability, T/C [17]: 9.02%
- viability, T/C [18]: 5.86%
- viability, T/C [19]: 73.8%
- viability, T/C [20]: 40%
- viability, T/C [21]: 17.7%
- viability, T/C [22]: 9.58%
- viability, T/C [23]: 8.48%
- viability, T/C [24]: 5.82%
- viability, T/C [25]: 60.1%
- viability, T/C [26]: 31.8%
- viability, T/C [27]: 17.9%
- viability, T/C [28]: 10.3%
- viability, T/C [29]: 8.26%
- viability, T/C [30]: 6.08%
- viability, T/C [31]: 63%
- viability, T/C [32]: 41.5%
- viability, T/C [33]: 18.5%
- viability, T/C [34]: 10.8%
- viability, T/C [35]: 9.19%
- viability, T/C [36]: 5.28%

Structure (SMILES): O=C(Nc1ccc(O)c(NS(=O)(=O)c2ccc(F)cc2)c1)c1ccc(-c2ccccc2)cc1 + Cc1cccc(N(C)C(=O)C2C(O)CCN2c2nc(C)cc(C(F)(F)F)c2C#N)c1
- IC50 (second compound 0.0316 µM): > 10 µM
- IC50 (second compound 0.1 µM): > 10 µM
- IC50 (second compound 0.316 µM): > 10 µM
- IC50 (second compound 1 µM): > 10 µM
- IC50 (second compound 3.16 µM): > 10 µM
- IC50 (second compound 10 µM): > 10 µM
- viability, T/C [1]: 93.8%
- viability, T/C [2]: 104%
- viability, T/C [3]: 91.9%
- viability, T/C [4]: 121%
- viability, T/C [5]: 100%
- viability, T/C [6]: 105%
- viability, T/C [7]: 100%
- viability, T/C [8]: 112%
- viability, T/C [9]: 111%
- viability, T/C [10]: 99.8%
- viability, T/C [11]: 107%
- viability, T/C [12]: 102%
- viability, T/C [13]: 100%
- viability, T/C [14]: 110%
- viability, T/C [15]: 102%
- viability, T/C [16]: 106%
- viability, T/C [17]: 118%
- viability, T/C [18]: 107%
- viability, T/C [19]: 103%
- viability, T/C [20]: 99.5%
- viability, T/C [21]: 94.1%
- viability, T/C [22]: 105%
- viability, T/C [23]: 112%
- viability, T/C [24]: 97%
- viability, T/C [25]: 106%
- viability, T/C [26]: 106%
- viability, T/C [27]: 108%
- viability, T/C [28]: 103%
- viability, T/C [29]: 105%
- viability, T/C [30]: 107%
- viability, T/C [31]: 111%
- viability, T/C [32]: 98.7%
- viability, T/C [33]: 107%
- viability, T/C [34]: 105%
- viability, T/C [35]: 109%
- viability, T/C [36]: 104%

Structure (SMILES): CC(=O)O[C@H]1C(=O)[C@@]2(C)[C@H]([C@H](OC(=O)c3ccccc3)[C@]3(O)C[C@H](OC(=O)[C@H](O)[C@@H](NC(=O)c4ccccc4)c4ccccc4)C(C)=C1C3(C)C)[C@]1(OC(C)=O)CO[C@@H]1C[C@@H]2O + Nc1ccc(C#CCN(C(=O)Cc2ncc(C(F)(F)F)cc2C(F)(F)F)c2ccc(F)cc2)nn1
- IC50 (second compound 0.0316 µM): 0.0144 µM
- IC50 (second compound 0.1 µM): 0.0144 µM
- IC50 (second compound 0.316 µM): 0.014 µM
- IC50 (second compound 1 µM): 0.0153 µM
- IC50 (second compound 3.16 µM): 0.0142 µM
- IC50 (second compound 10 µM): 0.0132 µM
- viability, T/C (second compound 0.0316 µM, first compound 0.00949 µM): 65.6%
- viability, T/C (second compound 0.0316 µM, first compound 0.03 µM): 20.2%
- viability, T/C (second compound 0.0316 µM, first compound 0.0949 µM): 16%
- viability, T/C (second compound 0.0316 µM, first compound 0.3 µM): 16.2%
- viability, T/C (second compound 0.0316 µM, first compound 0.949 µM): 26.6%
- viability, T/C (second compound 0.0316 µM, first compound 3 µM): 32.6%
- viability, T/C (second compound 0.1 µM, first compound 0.00949 µM): 67%
- viability, T/C (second compound 0.1 µM, first compound 0.03 µM): 18.6%
- viability, T/C (second compound 0.1 µM, first compound 0.0949 µM): 15.9%
- viability, T/C (second compound 0.1 µM, first compound 0.3 µM): 17.1%
- viability, T/C (second compound 0.1 µM, first compound 0.949 µM): 22.2%
- viability, T/C (second compound 0.1 µM, first compound 3 µM): 24.6%
- viability, T/C (second compound 0.316 µM, first compound 0.00949 µM): 64.2%
- viability, T/C (second compound 0.316 µM, first compound 0.03 µM): 22.6%
- viability, T/C (second compound 0.316 µM, first compound 0.0949 µM): 16%
- viability, T/C (second compound 0.316 µM, first compound 0.3 µM): 17.1%
- viability, T/C (second compound 0.316 µM, first compound 0.949 µM): 19.8%
- viability, T/C (second compound 0.316 µM, first compound 3 µM): 26.2%
- viability, T/C (second compound 1 µM, first compound 0.00949 µM): 71%
- viability, T/C (second compound 1 µM, first compound 0.03 µM): 18.2%
- viability, T/C (second compound 1 µM, first compound 0.0949 µM): 14.8%
- viability, T/C (second compound 1 µM, first compound 0.3 µM): 17.5%
- viability, T/C (second compound 1 µM, first compound 0.949 µM): 25.2%
- viability, T/C (second compound 1 µM, first compound 3 µM): 24%
- viability, T/C (second compound 3.16 µM, first compound 0.00949 µM): 67%
- viability, T/C (second compound 3.16 µM, first compound 0.03 µM): 16.2%
- viability, T/C (second compound 3.16 µM, first compound 0.0949 µM): 15.4%
- viability, T/C (second compound 3.16 µM, first compound 0.3 µM): 15.9%
- viability, T/C (second compound 3.16 µM, first compound 0.949 µM): 18.5%
- viability, T/C (second compound 3.16 µM, first compound 3 µM): 26.7%
- viability, T/C (second compound 10 µM, first compound 0.00949 µM): 64.3%
- viability, T/C (second compound 10 µM, first compound 0.03 µM): 14.5%
- viability, T/C (second compound 10 µM, first compound 0.0949 µM): 13.4%
- viability, T/C (second compound 10 µM, first compound 0.3 µM): 14.3%
- viability, T/C (second compound 10 µM, first compound 0.949 µM): 15.9%
- viability, T/C (second compound 10 µM, first compound 3 µM): 18.5%

Structure (SMILES): COc1cc(C2c3cc4c(cc3C(OC3OC5COC(C)OC5C(O)C3O)C3COC(=O)C23)OCO4)cc(OC)c1O (stereo not drawn) + Nc1ccc(C#CCN(C(=O)Cc2ncc(C(F)(F)F)cc2C(F)(F)F)c2ccc(F)cc2)nn1
- IC50 (second compound 0.0316 µM): 0.506 µM
- IC50 (second compound 0.1 µM): 0.489 µM
- IC50 (second compound 0.316 µM): 0.514 µM
- IC50 (second compound 1 µM): 0.463 µM
- IC50 (second compound 3.16 µM): 0.486 µM
- IC50 (second compound 10 µM): 0.444 µM
- viability, T/C [1]: 106%
- viability, T/C [2]: 103%
- viability, T/C [3]: 76.4%
- viability, T/C [4]: 11.7%
- viability, T/C [5]: 6.31%
- viability, T/C [6]: 7.42%
- viability, T/C [7]: 103%
- viability, T/C [8]: 99.5%
- viability, T/C [9]: 73%
- viability, T/C [10]: 12%
- viability, T/C [11]: 7.16%
- viability, T/C [12]: 6.74%
- viability, T/C [13]: 104%
- viability, T/C [14]: 105%
- viability, T/C [15]: 77.2%
- viability, T/C [16]: 12.9%
- viability, T/C [17]: 5.81%
- viability, T/C [18]: 7.82%
- viability, T/C [19]: 92.5%
- viability, T/C [20]: 95.3%
- viability, T/C [21]: 68.5%
- viability, T/C [22]: 12.6%
- viability, T/C [23]: 7.75%
- viability, T/C [24]: 8.54%
- viability, T/C [25]: 100%
- viability, T/C [26]: 95.2%
- viability, T/C [27]: 71.3%
- viability, T/C [28]: 14.6%
- viability, T/C [29]: 5.65%
- viability, T/C [30]: 8.11%
- viability, T/C [31]: 100%
- viability, T/C [32]: 96.1%
- viability, T/C [33]: 66.1%
- viability, T/C [34]: 11.5%
- viability, T/C [35]: 5.67%
- viability, T/C [36]: 7.88%
